{"source": "paper PMC11879140", "about": "“Engineering of Phycourobilin Synthase: PubS to a Two-Electron Reductase” (Plant and Cell Physiology, 2024)", "experiment_in_all_cases": "absorption spectrum of BV complex; anaerobic bilin reductase assay with HPLC", "assay_type_in_all_cases": "biochemical", "settings_in_all_cases": "ferredoxin (Synechococcus sp. PCC 7002), FNR, NADPH 100 uM; 10 uM BV, 10 uM PubS; pH 8.5, 30 °C", "key": {"[1]": {"target": "T1, ΔΝ_PpPubS (PpPubS, PubS) (Physcomitrium patens, UniProt I3TC50, N310R)", "T1 construct": "residues 1-55 (N-terminal disordered region) deleted; N-terminal His-tag, pET28a, synthetic codon-optimised gene, E. coli C41", "T1 sequence (I3TC50 entry or part of it N310R)": "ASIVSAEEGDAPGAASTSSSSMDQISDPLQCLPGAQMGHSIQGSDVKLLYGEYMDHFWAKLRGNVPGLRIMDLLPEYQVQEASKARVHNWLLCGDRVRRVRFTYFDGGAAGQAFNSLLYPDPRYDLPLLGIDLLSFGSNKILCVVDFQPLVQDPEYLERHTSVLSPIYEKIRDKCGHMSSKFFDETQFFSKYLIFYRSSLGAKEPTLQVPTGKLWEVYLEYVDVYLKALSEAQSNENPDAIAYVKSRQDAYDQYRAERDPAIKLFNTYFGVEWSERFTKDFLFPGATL"}, "[2]": {"target": "T2, ΔΝ_PpPubS (PpPubS, PubS) (Physcomitrium patens, UniProt I3TC50, E240A/N310R)", "T2 construct": "residues 1-55 (N-terminal disordered region) deleted; N-terminal His-tag, pET28a, synthetic codon-optimised gene, E. coli C41", "T2 sequence (I3TC50 entry or part of it E240A/N310R)": "as the sequence (I3TC50 entry or part of it N310R) above, with E185A counted along it"}, "[3]": {"target": "T3, ΔΝ_PpPubS (PpPubS, PubS) (Physcomitrium patens, UniProt I3TC50, F238A/N310R)", "T3 construct": "residues 1-55 (N-terminal disordered region) deleted; N-terminal His-tag, pET28a, synthetic codon-optimised gene, E. coli C41", "T3 sequence (I3TC50 entry or part of it F238A/N310R)": "as the sequence (I3TC50 entry or part of it N310R) above, with F183A counted along it"}}}
{"smiles": "C=CC1=C(C)C(=Cc2[nH]c(C=C3N=C(C=C4NC(=O)C(C)=C4C=C)C(C)=C3CCC(=O)O)c(CCC(=O)O)c2C)NC1=O", "note": "[biliverdin IXα]", "values": [{"measurement": "absorption spectrum of BV complex; anaerobic bilin reductase assay with HPLC", "setting": "[1]", "result": "PpPubS_N310R exhibited a decrease in BV absorbance similar to the wild-type molecule"}, {"measurement": "absorption spectrum of BV complex; anaerobic bilin reductase assay with HPLC", "setting": "[2]", "result": "Spectroscopic observations of these variants showed a decrease in BV after the addition of NADPH"}, {"measurement": "absorption spectrum of BV complex; anaerobic bilin reductase assay with HPLC", "setting": "[3]", "result": "Spectroscopic observations of these variants showed a decrease in BV after the addition of NADPH"}]}
